System: choroidal neovascularization
Assay: Laser-induced choroidal neovascularization (CNV) model of AMD
Format: in vivo, mouse
Conditions: intravitreal days 1 and 7; 10 μg AGX51E2, 40 μg Aflibercept
Description: Mouse mode/s of ocular neovascularization. CNV was induced as previously described. Tobe et al., Am. J. Pathol., 153, 1641-1646 (1998). Briefly, 4-6 week-old female Id1^−/− or Id3^−/− mice and littermate control Id1^+/+ or Id3^+/+ mice (all in C57BL/6 background) had laser-induced rupture of Bruch's membrane at three locations in each eye and after 14 days mice were euthanized, eyes were removed, and choroidal flat mounts were stained with FITC-labeled Griffonia simplicifolia lectin (Vector Laboratories, Burlingame, Calif.) which selectively stains vascular cells (n=12 mice per group). Flat mounts were examined by fluorescence microscopy and the area of each CNV was measured by image analysis with Image-Pro Plus software (Media Cybernetics, Silver Spring, Md.) by an observer masked with respect to experimental groups. In other experiments, wild type 4-6 week-old, female, C57BL/6 mice had rupture of Bruch's membrane in each eye followed by intravitreal injection of 1-30 μg of AGX51 (racemic, E1 or E2) or vehicle in one eye immediately and after 7 days or mice were given twice daily i.p. injections of 500 μg of AGX51 or vehicle for 14 days (n=7-10 mice per group). The area of CNV was measured 14 days after rupture of Bruch's membrane. For Aflibercept and AGX-A treatment experiments, rupture of Bruch's membrane was carried out and then mice were treated with 40 μg of Aflibercept, 10 μg of AGX51E2, 1-5 μg of AGX51, 1-5 μg of AGX-A, DMSO or combinations. The mice were 4-6 week-old female C57BL/6. After 14 days, the mice were euthanized and CNV was measured as described above.

Aflibercept: clinically approved treatment for AMD, a VEGF trap
CNV area, head-to-head and combination treatment: failed to reach statistical significance
